The term solubility denotes the dissolved amount per volume that the medium holds.

Common to all, as to type: physicochemical
Series [1] can be described thus: Solubility of compound II in solvents. On the procedure:
Compound II (2 g) was slowly dispersed in 70% IPA (20 mL) and water (14 mL) was added. […] The IPA was distilled using rotary evaporator to achieve an aqueous solution containing ca. […] of II. The concentrated aqueous solution was spray dried using a Buchi B-290 spray drier and the operating parameters were adjusted as follows: […]

Series [2] is described as follows: Stability study of micellar solid from spray drying of I (HPLC area %). Here is the method: (§1) A small amount of the solid (about 10 mg from example 1) was weighed into a weighing bottle and placed in a chamber with controlled relative humidity for 4 weeks and the percentage of water absorbed was calculated form the weight gain. The sample was also assayed by HPLC against an external standard on a Waters 2690 HPLC at 276 nm. The data was processed using Waters Millennium software version 3.2. The thermal stability also was determined at 60° C. and at 40° C./75% relative humidity. The purity of the sample was determined by assaying weighed aliquots by HPLC against an external standard.

A short description of series [3]: Hygroscopicity: water absorbed in controlled relative humidity chamber (weight gain). To be noted: 4 weeks. Here is the method: as §1

Each structure is given as a SMILES string.

Turning to `CCC(=O)[N-]S(=O)(=O)c1ccc(NC(=O)Cc2ccc(Br)c(Oc3cc(Cl)cc(C#N)c3)c2F)c(Cl)c1.[Na+]` [II], the solubility in series [1] (aqueous with cosolvent or surfactant or cyclodextrin, in 70% IPA/H2O) is about 47000 µg/mL; in series [1] (in water), about 4000 µg/mL; in series [1] (organic solvent or mixture, in IPA) it was about 80 µg/mL.

Consider `O=C(O)CCc1cc(C(=O)c2ccc(OC3CCCC3)cc2O)ccc1OCc1ccc2c(O)noc2c1` [I], for which the Area % in series [2] (25° C./60% RH (closed), 4 weeks) came to 99.88%; in series [2] (25° C./60% RH (closed), To), 99.88%; in series [2] (40° C./75% RH (closed), 4 weeks) it was 99.91%; in series [2] (40° C./75% RH (closed), To), 99.88%; in series [2] (40° C./75% RH (open), 5 weeks) it was 99.26%; in series [2] (40° C./75% RH (open), To), 99.81%. Further, the Area % was determined as 99.72% in series [2] (60° C. (closed), 5 weeks) and 99.81% in series [2] (60° C. (closed), To). Also, the thermal stability result in series [2] (at 40 and 60° C. over the duration of the assay) is “thermally stable”. Further, the hygroscopicity entry in series [3] is on record as “not hygroscopic”.

These data come from patent publication US20090218708A1, “Process for preparing concentrated aqueous micellar solutions” (Roche Palo Alto LLC, priority 2008, published 2009).
